Here are results for 1 cell line from the supplement of paper PMC10307832.

Holding throughout (experiment): relative viability (nuclei count vs DMSO), 5 days (fraction); higher = more cells survive
Compound in assay [1]: C#Cc1cccc(Nc2ncnc3cc(OCCOC)c(OCCOC)cc23)c1 [Erlotinib] + CC(=O)Nc1cccc(-n2c(=O)n(C3CC3)c(=O)c3c(Nc4ccc(I)cc4F)n(C)c(=O)c(C)c32)c1 [Trametinib] (partner 0.02 µM)
In outline:
(§1)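 The day after seeding in 1536-well plates, lung cancer cell lines were treated by pin tool with a single drug, or with a fixed anchor-drug dose together with five library-drug doses (not always all listed) in √10 steps. After 5 days, a combined fix-and-stain solution (final 0.05% Triton X-100, 1% formaldehyde, 1 ug/ml Hoechst) was added. Nuclei counted on 4× images gave relative viability as treated counts over vehicle counts, reported as the median of duplicate plates.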

Compound in assay [2]: C#Cc1cccc(Nc2ncnc3cc(OCCOC)c(OCCOC)cc23)c1 [Erlotinib] + CC1(C)CCC(c2ccc(Cl)cc2)=C(CN2CCN(c3ccc(C(=O)NS(=O)(=O)c4ccc(N[C@H](CCN5CCOCC5)CSc5ccccc5)c(S(=O)(=O)C(F)(F)F)c4)cc3)CC2)C1 [Navitoclax] (partner 0.5 µM)
In outline: as §1

Compound in assay [3]: C#Cc1cccc(Nc2ncnc3cc(OCCOC)c(OCCOC)cc23)c1 [Erlotinib] + N=C(N)NC(=N)NCCc1ccccc1 [Phenformin] (partner 250 µM)
In outline: as §1

Compound in assay [4]: O=C(Nc1c[nH]nc1-c1nc2ccc(CN3CCOCC3)cc2[nH]1)NC1CC1 [AT9283] + COc1cccc2cc(-c3nc([C@H]4CC[C@H](C(=O)O)CC4)n4ncnc(N)c34)[nH]c12 [OSI-027] (partner 0.5 µM)
The gist of the method: as §1

Compound in assay [5]: O=C(Nc1c[nH]nc1-c1nc2ccc(CN3CCOCC3)cc2[nH]1)NC1CC1 [AT9283] + CS(=O)(=O)N1CCN(Cc2cc3nc(-c4cccc5[nH]ncc45)nc(N4CCOCC4)c3s2)CC1 [Pictilisib] (partner 1 µM)
In outline:
as §1

For NCI-H441, the relative viability in assay [1] (first compound 0.02 µM) came out at 0.457; in assay [1] (first compound 0.6325 µM) it was 0.442; in assay [1] (first compound 2 µM), 0.328; in assay [2] (first compound 0.02 µM), 1.03; in assay [2] (first compound 0.2 µM), 0.805; in assay [2] (first compound 0.6325 µM), 0.555. In addition, the relative viability amounted to 0.302 in assay [2] (first compound 2 µM); 0.883 in assay [3] (first compound 0.02 µM); 0.863 in assay [3] (first compound 0.2 µM); 0.892 in assay [3] (first compound 0.6325 µM); 0.532 in assay [4] (first compound 0.003 µM); 0.574 in assay [4] (first compound 0.03 µM). Moreover, the relative viability in assay [4] (first compound 0.09487 µM) was 0.321; in assay [4] (first compound 0.3 µM) it was 0.333; in assay [5] (first compound 0.003 µM) it was 0.359; in assay [5] (first compound 0.03 µM), 0.469; in assay [5] (first compound 0.09487 µM) it was 0.138; in assay [5] (first compound 0.3 µM), 0.186.
